Test results: patent US11926615B1, “2-alkoxy[4,3:6,4-terpyridine]-3-carbonitriles as antimicrobial compounds” (KING FAISAL UNIVERSITY, priority 2023, dated 2024)

Key:
Type in all cases: cell-based
Bacillus Cereus = assay: Agar plate disc-diffusion, antibacterial inhibition zone; details: DMSO control zone subtracted; for inhibition zone, Bacillus Cereus, A: A = concentration of comp. = 10,000 μL; for inhibition zone, Bacillus Cereus, B: B = concentration of comp. = 30.000 μL; for inhibition zone, Bacillus Cereus, C: C = concentration of comp. = 50,000 μL
Method: (§1) The agar plate disc-diffusion method was applied. Sterilized filter papers (6 mm in diameter) were wetted with 10 μL of a solution of 2-ethoxy[4,3:6,4-terpyridine]-3-carbonitrile (4) and 2-methoxy[4,3:6,4-terpyridine]-3-carbonitrile (5) to be tested, containing […], and the discs were allowed to air dry. The discs were then placed onto the surface of agar plates (nutrient agar for bacteria and Sabouraud's dextrose agar for fungi) seeded with the test organism. Each plate contained 15 mL of the agar medium, previously seeded with 0.2 mL of the broth culture of each organism pregrown for 18 hours. The plates were incubated at 37° C. for 48 h, and 72 h for fungi. The inhibition zones were measured in mm. Discs impregnated with DMSO were used as a control, and its inhibition zone was subtracted from the tested compound actual inhibition zone.

Escherichia coli = assay: as above; details: DMSO control zone subtracted; for inhibition zone, Escherichia coli, A: A = concentration of comp. = 10,000 μL; for inhibition zone, Escherichia coli, B: B = concentration of comp. = 30.000 μL; for inhibition zone, Escherichia coli, C: C = concentration of comp. = 50,000 μL
Method: as §1

Pseudomonas aeruginosa = assay: as above; details: DMSO control zone subtracted; for inhibition zone, Pseudomonas aeruginosa, A: A = concentration of comp. = 10,000 μL; for inhibition zone, Pseudomonas aeruginosa, B: B = concentration of comp. = 30.000 μL; for inhibition zone, Pseudomonas aeruginosa, C: C = concentration of comp. = 50,000 μL
Method: as §1

Staphylococcus aureus = assay: as above; details: DMSO control zone subtracted; for inhibition zone, Staphylococcus aureus, A: A = concentration of comp. = 10,000 μL; for inhibition zone, Staphylococcus aureus, B: B = concentration of comp. = 30.000 μL; for inhibition zone, Staphylococcus aureus, C: C = concentration of comp. = 50,000 μL
Method: as §1

Aspergillus flavus = assay: Agar plate disc-diffusion, antifungal inhibition zone; details: DMSO control zone subtracted; for inhibition zone, Aspergillus flavus, A: A = concentration of comp. = 10,000 μL; for inhibition zone, Aspergillus flavus, B: B = concentration of comp. = 30.000 μL; for inhibition zone, Aspergillus flavus, C: C = concentration of comp. = 50,000 μL
Method: as §1

[1] = test system: Chrysosporium keratinophilum; assay: as above; details: DMSO control zone subtracted; for inhibition zone, Chrysosporium keratinophilum, A: A = concentration of comp. = 10,000 μL; for inhibition zone, Chrysosporium keratinophilum, B: B = concentration of comp. = 30.000 μL; for inhibition zone, Chrysosporium keratinophilum, C: C = concentration of comp. = 50,000 μL
Method: as §1

Compound	inhibition zone, Bacillus Cereus, A (Bacillus Cereus)	inhibition zone, Bacillus Cereus, B (Bacillus Cereus)	inhibition zone, Bacillus Cereus, C (Bacillus Cereus)	inhibition zone, Escherichia coli, A (Escherichia coli)	inhibition zone, Escherichia coli, B (Escherichia coli)	inhibition zone, Escherichia coli, C (Escherichia coli)	inhibition zone, Pseudomonas aeruginosa, A (Pseudomonas aeruginosa)	inhibition zone, Pseudomonas aeruginosa, B (Pseudomonas aeruginosa)	inhibition zone, Pseudomonas aeruginosa, C (Pseudomonas aeruginosa)	inhibition zone, Staphylococcus aureus, A (Staphylococcus aureus)	inhibition zone, Staphylococcus aureus, B (Staphylococcus aureus)	inhibition zone, Staphylococcus aureus, C (Staphylococcus aureus)	inhibition zone, Aspergillus flavus, A (Aspergillus flavus)	inhibition zone, Aspergillus flavus, B (Aspergillus flavus)	inhibition zone, Aspergillus flavus, C (Aspergillus flavus)	inhibition zone, Chrysosporium keratinophilum, A [1]	inhibition zone, Chrysosporium keratinophilum, B [1]	inhibition zone, Chrysosporium keratinophilum, C [1]
CCOc1nc(-c2ccncc2)cc(-c2cccnc2)c1C#N [Compound 4, 2-ethoxy[4,3:6,4-terpyridine]-3-carbonitrile]	27 mm	34 mm	39 mm	33 mm	41 mm	49 mm	28 mm	34 mm	41 mm	19 mm	23 mm	33 mm	30 mm	34 mm	41 mm	26 mm	31 mm	39 mm
COc1nc(-c2ccncc2)cc(-c2cccnc2)c1C#N [Compound 5, 2-methoxy[4,3:6,4-terpyridine]-3-carbonitrile]	32 mm	36 mm	41 mm	32 mm	39 mm	42 mm	26 mm	32 mm	40 mm	23 mm	28 mm	37 mm	19 mm	24 mm	30 mm	27 mm	30 mm	46 mm
